Test results from patent publication US7459447B2, “Method for treating hyperlipidemia” (Kowa Co., Ltd., priority 2004, dated 2008).

System: Hartley male guinea pigs
Assay: Blood cholesterol level lowering effect in guinea pigs, oral administration once a day for 14 days
Assay type: in vivo, guinea pig
Conditions: ezetimibe 3 mg/kg, oral once a day for 14 days, blood collected after 18 h fast; for Reduction ratio (%) of blood cholesterol level: vs control group
Description: The blood cholesterol level lowering effect when a calcium salt of pitavastatin and ezetimibe were coadministered was measured by the below-described testing method. For comparison, a calcium salt of atorvastatin was used instead of the calcium salt of pitavastatin and the effect brought about by the concomitant use of two medicaments was measured in a similar manner. • 1. Animals Provided for the Test and Their Breeding Environment
Six-week-old Hartley male guinea pigs (purchased from Nippon SLC) were provided for the test. Throughout the test period, they were bred in a breeding room maintained at a light-dark cycle (a light term by a room light: from 7:00 am to 7:00 pm), a temperature of 23 ±3° C. and a humidity of 55 ±15% and fed with a solid feedstuff (“RC-4”, product of Oriental Yeast Industry) and tap water ad libitum. • 2. Preparation of Medicament
Treatment method according to the invention: The calcium salt of pitavastatin and ezetimibe were suspended in a 0.5 wt. % aqueous solution of carboxymethylcellulose sodium (product of Iwai Chemicals Company) and their concentrations were adjusted to 1 mg/mL and 3 mg/mL, respectively. Since the calcium salt of pitavastatin contained 9.43 wt. % of water, 1.1 times the weight of the dosage was weighed for correction. The suspension was refrigerated (4° C.) in a light resistant bottle and adjustment was conducted every 7 days.
Treatment method for comparison: In a similar manner to that described above except the use of the calcium salt of atorvastatin instead of the calcium salt of pitavastatin, a medicament (atorvastatin calcium 5 mg/mL) for comparison test was prepared. • 3. Testing Method
The treatment method according to the present invention: Twenty four guinea pigs were classified into four groups (each consisting of 6 guinea pigs), that is, a control group, a single administration group of pitavastatin calcium salt (1 mg/kg), a single administration group of ezetimibe (3 mg/kg), and a coadministration group of pitavastatin calcium salt (1 mg/kg) and ezetimibe (3 mg/kg) so that they differ little in the total blood cholesterol level and blood triglyceride level. These two medicaments were each administered at a dose of 1 mL/kg once a day and this administration was repeated for 14 days. To the control group, a 0.5 wt. % aqueous solution (1 mL/kg) of carboxymethylcellulose sodium was orally administered. In each group, the guinea pigs were fasted for 18 hours after the final administration and then the blood was collected from them to measure the blood cholesterol level.
Treatment method for comparison: twenty four guinea pigs were tested in a similar manner to the method according to the invention. The dosage of the calcium salt of atorvastatin was 5 mg/kg in each of the group nourished by the single use of atorvastatin calcium salt and the group nourished by the concomitant use of atorvastatin calcium salt and ezetimibe. • 4. Static Analysis and Data Processing Method
Multigroup comparison between the control group and the medicament administered group was performed using Bartlett's variance analysis—Dunnett's multiple comparative assay. A difference with a significance level less than 5% was regarded as significant. • 5. Results
A reduction ratio (%) is a value represented by ((total blood cholesterol level of control group on average−total blood cholesterol level of each group on average)/(total blood cholesterol level of control group on average))×100, while a relative index is a value represented by (total blood cholesterol level of each group on average)/(total blood cholesterol level of control group on average).

[1] = Table 2 comparison test: atorvastatin Ca 5 mg/kg
[2] = Table 1 test: pitavastatin Ca 1 mg/kg

Structure (SMILES): CC(C)c1c(C(=O)Nc2ccccc2)c(-c2ccccc2)c(-c2ccc(F)cc2)n1CC[C@@H](O)C[C@@H](O)CC(=O)O [atorvastatin Ca]
- Relative index (total blood cholesterol level of group / control group) [1]: 0.77
- Reduction ratio (%) of blood cholesterol level [1]: 23%

Structure (SMILES): O=C1[C@H](CC[C@H](O)c2ccc(F)cc2)[C@@H](c2ccc(O)cc2)N1c1ccc(F)cc1 [ezetimibe, (3R,4S)-1-(4-fluorophenyl)-3-[(3S)-3-(4-fluorophenyl)-3-hydroxypropyl]-4-(4-hydroxyphenyl)-2-azetidinone]
- Relative index (total blood cholesterol level of group / control group) [2]: 0.79
- Reduction ratio (%) of blood cholesterol level [2]: 21%
- Relative index (total blood cholesterol level of group / control group) [1]: 0.81
- Reduction ratio (%) of blood cholesterol level [1]: 19%

Structure (SMILES): O=C(O)C[C@H](O)C[C@H](O)/C=C/c1c(C2CC2)nc2ccccc2c1-c1ccc(F)cc1 [pitavastatin Ca, (3R,5S,6E)-7-[2-cyclopropyl-4-(4-fluorophenyl)-3-quinolyl]-3,5-dihydroxy-6-heptenoic acid]
- Relative index (total blood cholesterol level of group / control group) [2]: 0.71
- Reduction ratio (%) of blood cholesterol level [2]: 29%
